Experimental data from PubChem BioAssay (NCI).
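Step 1: Grow cells in 96-well plates. Step 2: Expose to compound for 48 hours at 5 concentrations. Step 3: Interpolate endpoints linearly; if unreached, use highest concentration. At the GI50, growth is halved. The concentration for full growth arrest is given as TGI.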

Tests used:
Assay in all cases: NCI-60 cell line screen, 48 h; in the data active means GI50 below about 0.43 µM; inactive means the rest
U251 CNS = test system: U251 CNS
IGROV1 ovarian = test system: IGROV1 ovarian
HT29 colon = test system: HT29 colon
NCI-H522 lung = test system: NCI-H522 lung
HL-60(TB) leukemia = test system: HL-60(TB) leukemia
SW-620 colon = test system: SW-620 colon
K-562 leukemia = test system: K-562 leukemia
XF 498 CNS = test system: XF 498 CNS
SK-OV-3 ovarian = test system: SK-OV-3 ovarian
UO-31 renal = test system: UO-31 renal
OVCAR-4 ovarian = test system: OVCAR-4 ovarian
COLO 205 colon = test system: COLO 205 colon
SNB-75 CNS = test system: SNB-75 CNS
A549 NSCLC = test system: A549 NSCLC
MOLT-4 leukemia = test system: MOLT-4 leukemia
HCT-116 colon = test system: HCT-116 colon
RPMI-8226 leukemia = test system: RPMI-8226 leukemia
SF-268 CNS = test system: SF-268 CNS
HOP-62 NSCLC = test system: HOP-62 NSCLC
TK-10 renal = test system: TK-10 renal
OVCAR-8 ovarian = test system: OVCAR-8 ovarian
KM20L2 colon = test system: KM20L2 colon
SNB-19 CNS = test system: SNB-19 CNS
SF-539 CNS = test system: SF-539 CNS
UACC-62 melanoma = test system: UACC-62 melanoma
SK-MEL-28 melanoma = test system: SK-MEL-28 melanoma
OVCAR-3 ovarian = test system: OVCAR-3 ovarian
RXF 393 renal = test system: RXF 393 renal
KM12 colon = test system: KM12 colon
DMS 114 small cell lung = test system: DMS 114 small cell lung
HOP-92 NSCLC = test system: HOP-92 NSCLC
NCI-H460 lung = test system: NCI-H460 lung
UACC-257 melanoma = test system: UACC-257 melanoma
MALME-3M melanoma = test system: MALME-3M melanoma
EKVX NSCLC = test system: EKVX NSCLC
SN12C renal = test system: SN12C renal
SK-MEL-5 melanoma = test system: SK-MEL-5 melanoma
SF-295 CNS = test system: SF-295 CNS
M19-MEL melanoma = test system: M19-MEL melanoma
OVCAR-5 ovarian = test system: OVCAR-5 ovarian
SK-MEL-2 melanoma = test system: SK-MEL-2 melanoma
CCRF-CEM leukemia = test system: CCRF-CEM leukemia
LXFL 529 NSCLC = test system: LXFL 529 NSCLC
NCI-H23 lung = test system: NCI-H23 lung
M14 melanoma = test system: M14 melanoma
SR leukemia = test system: SR leukemia
ACHN renal = test system: ACHN renal
NCI-H226 lung = test system: NCI-H226 lung
RXF-631 renal = test system: RXF-631 renal
HCT-15 colon = test system: HCT-15 colon
DLD-1 colon = test system: DLD-1 colon
A498 renal = test system: A498 renal
HCC-2998 colon = test system: HCC-2998 colon
786-0 renal = test system: 786-0 renal
LOX IMVI melanoma = test system: LOX IMVI melanoma
DMS 273 small cell lung = test system: DMS 273 small cell lung

O=C(NN1C(=O)C(Cl)C1c1ccc([N+](=O)[O-])cc1)c1ccccc1O (stereo not given)
> 100 µM: TGI (U251 CNS) | TGI (IGROV1 ovarian) | TGI (HT29 colon) | TGI (NCI-H522 lung) | TGI (HL-60(TB) leukemia) | TGI (SW-620 colon) | TGI (K-562 leukemia) | TGI (XF 498 CNS) | TGI (SK-OV-3 ovarian) | TGI (UO-31 renal) | TGI (OVCAR-4 ovarian) | TGI (COLO 205 colon) | TGI (SNB-75 CNS) | TGI (A549 NSCLC) | TGI (MOLT-4 leukemia) | TGI (HCT-116 colon) | TGI (RPMI-8226 leukemia) | TGI (SF-268 CNS) | TGI (HOP-62 NSCLC) | TGI (TK-10 renal) | TGI (OVCAR-8 ovarian) | TGI (KM20L2 colon) | TGI (SNB-19 CNS) | TGI (SF-539 CNS) | TGI (UACC-62 melanoma) | TGI (SK-MEL-28 melanoma) | TGI (OVCAR-3 ovarian) | TGI (RXF 393 renal) | TGI (KM12 colon) | TGI (DMS 114 small cell lung) | TGI (HOP-92 NSCLC) | TGI (NCI-H460 lung) | TGI (UACC-257 melanoma) | TGI (MALME-3M melanoma) | TGI (EKVX NSCLC) | TGI (SN12C renal) | TGI (SK-MEL-5 melanoma) | TGI (SF-295 CNS) | TGI (M19-MEL melanoma) | TGI (OVCAR-5 ovarian) | TGI (SK-MEL-2 melanoma) | TGI (CCRF-CEM leukemia) | TGI (LXFL 529 NSCLC) | TGI (NCI-H23 lung) | TGI (M14 melanoma) | TGI (SR leukemia)

O=c1cc(-c2ccc[nH]2)[nH]c2cc3c(cc12)OCO3
83.6 µM: TGI (HL-60(TB) leukemia)
> 100 µM: TGI (ACHN renal) | TGI (U251 CNS) | TGI (IGROV1 ovarian) | TGI (HT29 colon) | TGI (SW-620 colon) | TGI (K-562 leukemia) | TGI (NCI-H226 lung) | TGI (RXF-631 renal) | TGI (HCT-15 colon) | TGI (UO-31 renal) | TGI (A549 NSCLC) | TGI (DLD-1 colon) | TGI (MOLT-4 leukemia) | TGI (HCT-116 colon) | TGI (RPMI-8226 leukemia) | TGI (SF-268 CNS) | TGI (TK-10 renal) | TGI (OVCAR-8 ovarian) | TGI (SNB-19 CNS) | TGI (UACC-62 melanoma) | TGI (SK-MEL-28 melanoma) | TGI (OVCAR-3 ovarian) | TGI (DMS 114 small cell lung) | TGI (786-0 renal) | TGI (NCI-H460 lung) | TGI (UACC-257 melanoma) | TGI (MALME-3M melanoma) | TGI (EKVX NSCLC) | TGI (LOX IMVI melanoma) | TGI (SN12C renal) | TGI (SK-MEL-5 melanoma) | TGI (SF-295 CNS) | TGI (M19-MEL melanoma) | TGI (SK-MEL-2 melanoma) | TGI (CCRF-CEM leukemia) | TGI (LXFL 529 NSCLC) | TGI (M14 melanoma) | TGI (SR leukemia) | TGI (DMS 273 small cell lung)
inactive: GI50 (NCI-H226 lung) 35.3 µM | GI50 (HCT-116 colon) 29.4 µM | GI50 (SF-268 CNS) > 100 µM | GI50 (KM20L2 colon) 20.1 µM | GI50 (OVCAR-3 ovarian) 30.8 µM | GI50 (RXF 393 renal) 15.9 µM | GI50 (DMS 114 small cell lung) 32.5 µM | GI50 (SK-MEL-5 melanoma) 7.74 µM | GI50 (SF-295 CNS) 33.8 µM
60.3 µM: TGI (COLO 205 colon)
68.9 µM: TGI (SNB-75 CNS)
89.2 µM: TGI (XF 498 CNS)
74.3 µM: TGI (A498 renal)
42.6 µM: TGI (KM20L2 colon)
86.5 µM: TGI (HCC-2998 colon)
93.5 µM: TGI (HOP-62 NSCLC)
84.6 µM: TGI (SF-539 CNS)
56 µM: TGI (OVCAR-4 ovarian)
47 µM: TGI (RXF 393 renal)
